Legend:
Format in all cases: biochemical
[1] = tested on: Amy1=Stainzyme; assay: amylase storage stability in liquid formulation (pNP release from Ethyliden-blocked-pNPG7); design: key: % of activity in reference formulation at time 0; settings: storage at 37° C.
Experimental: (§1) The storage stability of amylase was assessed at 37° C. Base test formulations were manufactured by making base formulations I to V by mixing the components according to Table 1. Amylases used: Amy1=Stainzyme, Amy2=Amplify, Amy3=Stainzyme Plus L (12L) The respective component (a) or comparative compound was added, if applicable, to the respective base formulation in amounts as indicated in Table 1. The amount of amylase as provided in Table 1 refers to active protein. Water was added to accomplish the balance to 100. […] Amylase activity at certain points in time as indicated in Table 2 was measured quantitatively by the release of the chromophore para-nitrophenol (pNP) from the substrate ([…]-blocked-pNPG7, Roche Applied Science 10880078103). The alpha-amylase degrades the substrate into smaller molecules and α-glucosidase (Roche Applied Science 11626329103), which is present in excess compared to the amylase, process these smaller products until pNP is released; the release of pNP, measured via an increase of absorption at 405 nm, is directly proportional to the amylase activity of the sample. Amylase standard: […] 120 L (Sigma 3403). […] The amylolytic activity values provided were calculated referring to the value determined in the reference formulation at the time 0. The nomenclature of formulations is as follows: the Roman number before the full stop characterizes the base formulation, the Arabian number the type of compound (A.# compound according to invention (component (a)); B.# comparative compound).

[2] = biological target: T1, Savinase Ultra 16.0L (Lederbergia lenta, UniProt P29600); assay: protease storage stability in liquid formulation (Suc-AAPF-pNA substrate); settings: storage at 37° C.
T1 construct: purchased Sigma-Aldrich
T1 sequence (P29600 1-269): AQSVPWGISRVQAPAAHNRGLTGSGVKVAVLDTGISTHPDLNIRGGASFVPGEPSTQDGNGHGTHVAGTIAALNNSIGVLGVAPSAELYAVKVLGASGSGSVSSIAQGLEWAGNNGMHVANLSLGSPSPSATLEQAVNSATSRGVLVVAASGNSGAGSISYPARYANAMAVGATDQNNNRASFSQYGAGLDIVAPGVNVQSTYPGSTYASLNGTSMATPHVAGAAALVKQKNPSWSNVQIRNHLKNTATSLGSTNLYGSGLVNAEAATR
Experimental: Base test formulations were manufactured by making base formulations I to V by mixing the components according to Table 1.
Protease used: (S) Savinase Ultra 16.0L (CAS-No. 9014-01-1, EC-No. 232-752-2) was purchased from Sigma-Aldrich
The respective component (a) or comparative compound was added, if applicable, to the respective base formulation in amounts as indicated in Table 1.
The amount of protease as provided in Table 1 refers to active protein.
Water was added to accomplish the balance to 100.
Protease activity at certain points in time as indicated in Table 3 was be determined by employing Succinyl-Ala-Ala-Pro-Phe-p-nitroanilide (Suc-AAPF-pNA, short AAPF) as substrate. pNA is cleaved from the substrate molecule by proteolytic cleavage, resulting in release of yellow color of free pNA which was determined by measuring […]. Measurements were done at 20° C.
The proteolytic activity values provided in Table 3 were calculated referring to the value determined in the reference formulation at the time 0.
The nomenclature of formulations is as follows: the Roman number before the full stop characterizes the base formulation, the Arabian number the type of salt (A.#inventive salt (component (a)); B.# comparative compound). Zero (“0”): no salt, but diethylene glycol.

[3] = tested on: Amy2=Amplify; assay: amylase storage stability in liquid formulation (pNP release from Ethyliden-blocked-pNPG7); design: key: % of activity in reference formulation at time 0; settings: base formulation III., 1.5 wt % component (a), storage at 37° C.
Experimental: as §1

[4] = base formulation IV., 2.0 wt % component (a), 3 d
[5] = base formulation IV., 2.0 wt % component (a), 7 d
[6] = base formulation IV., 2.0 wt % component (a), 14 d
[7] = base formulation IV., 2.0 wt % component (a), 21 d
[8] = base formulation IV., 2.0 wt % component (a), 28 d
[9] = base formulation IV., 2.0 wt % component (a), 42 d
[10] = base formulation IV., 2.0 wt % component (a), T0
[11] = base formulation I., 1.5 wt % component (a), 3 d
[12] = base formulation I., 1.5 wt % component (a), 7 d
[13] = base formulation I., 1.5 wt % component (a), 14 d
[14] = base formulation I., 1.5 wt % component (a), 21 d
[15] = base formulation I., 1.5 wt % component (a), 28 d
[16] = base formulation I., 1.5 wt % component (a), 42 d
[17] = base formulation I., 1.5 wt % component (a), T0
[18] = base formulation III., 1.5 wt % component (a), 3 d
[19] = base formulation III., 1.5 wt % component (a), 7 d
[20] = base formulation III., 1.5 wt % component (a), 14 d
[21] = base formulation III., 1.5 wt % component (a), 21 d
[22] = base formulation III., 1.5 wt % component (a), 28 d
[23] = base formulation III., 1.5 wt % component (a), 42 d
[24] = base formulation III., 1.5 wt % component (a), T0

CCCCOC(=O)CC(O)(CC(=O)OCCCC)C(=O)OCCCC [A.3, Tributylcitrate]
amylase activity, referring to reference formulation at time 0 [1, 4]: 95
amylase activity, referring to reference formulation at time 0 [1, 5]: 90
amylase activity, referring to reference formulation at time 0 [1, 6]: 84
amylase activity, referring to reference formulation at time 0 [1, 7]: 77
amylase activity, referring to reference formulation at time 0 [1, 8]: 68
amylase activity, referring to reference formulation at time 0 [1, 9]: 57
amylase activity, referring to reference formulation at time 0 [1, 10]: 98
protease activity, referring to reference formulation at time 0 [2, 4]: 98
protease activity, referring to reference formulation at time 0 [2, 5]: 90
protease activity, referring to reference formulation at time 0 [2, 6]: 85
protease activity, referring to reference formulation at time 0 [2, 7]: 78
protease activity, referring to reference formulation at time 0 [2, 8]: 70
protease activity, referring to reference formulation at time 0 [2, 9]: 67
protease activity, referring to reference formulation at time 0 [2, 10]: 99

CCCCOC(=O)CC(CC(=O)OCCCC)(OC(C)=O)C(=O)OCCCC [A.4, Acetyltributylcitrate]
protease activity, referring to reference formulation at time 0 [2, 11]: 100
protease activity, referring to reference formulation at time 0 [2, 12]: 94
protease activity, referring to reference formulation at time 0 [2, 13]: 90
protease activity, referring to reference formulation at time 0 [2, 14]: 84
protease activity, referring to reference formulation at time 0 [2, 15]: 82
protease activity, referring to reference formulation at time 0 [2, 16]: 70
protease activity, referring to reference formulation at time 0 [2, 17]: 102
protease activity, referring to reference formulation at time 0 ([2]; base formulation II., 1.5 wt % component (a), 3 d): 100
protease activity, referring to reference formulation at time 0 ([2]; base formulation II., 1.5 wt % component (a), 7 d): 95
protease activity, referring to reference formulation at time 0 ([2]; base formulation II., 1.5 wt % component (a), 14 d): 90
protease activity, referring to reference formulation at time 0 ([2]; base formulation II., 1.5 wt % component (a), 21 d): 85
protease activity, referring to reference formulation at time 0 ([2]; base formulation II., 1.5 wt % component (a), 28 d): 81
protease activity, referring to reference formulation at time 0 ([2]; base formulation II., 1.5 wt % component (a), 42 d): 70
protease activity, referring to reference formulation at time 0 ([2]; base formulation II., 1.5 wt % component (a), T0): 102
protease activity, referring to reference formulation at time 0 [2, 18]: 99
protease activity, referring to reference formulation at time 0 [2, 19]: 95
protease activity, referring to reference formulation at time 0 [2, 20]: 91
protease activity, referring to reference formulation at time 0 [2, 21]: 86
protease activity, referring to reference formulation at time 0 [2, 22]: 81
protease activity, referring to reference formulation at time 0 [2, 23]: 70
protease activity, referring to reference formulation at time 0 [2, 24]: 101
protease activity, referring to reference formulation at time 0 ([2]; base formulation V., 2.0 wt % component (a), 3 d): 94
protease activity, referring to reference formulation at time 0 ([2]; base formulation V., 2.0 wt % component (a), 7 d): 90
protease activity, referring to reference formulation at time 0 ([2]; base formulation V., 2.0 wt % component (a), 14 d): 85
protease activity, referring to reference formulation at time 0 ([2]; base formulation V., 2.0 wt % component (a), 21 d): 80
protease activity, referring to reference formulation at time 0 ([2]; base formulation V., 2.0 wt % component (a), 28 d): 76
protease activity, referring to reference formulation at time 0 ([2]; base formulation V., 2.0 wt % component (a), 42 d): 68
protease activity, referring to reference formulation at time 0 ([2]; base formulation V., 2.0 wt % component (a), T0): 98

Monoethylcitrate [A.6]
amylase activity, referring to reference formulation at time 0 [1, 11]: 95
amylase activity, referring to reference formulation at time 0 [1, 12]: 84
amylase activity, referring to reference formulation at time 0 [1, 13]: 79
amylase activity, referring to reference formulation at time 0 [1, 14]: 70
amylase activity, referring to reference formulation at time 0 [1, 15]: 61
amylase activity, referring to reference formulation at time 0 [1, 16]: 48
amylase activity, referring to reference formulation at time 0 [1, 17]: 98
amylase activity, referring to reference formulation at time 0 ([3]; 3 d): 96
amylase activity, referring to reference formulation at time 0 ([3]; 7 d): 90
amylase activity, referring to reference formulation at time 0 ([3]; 14 d): 83
amylase activity, referring to reference formulation at time 0 ([3]; 21 d): 74
amylase activity, referring to reference formulation at time 0 ([3]; 28 d): 63
amylase activity, referring to reference formulation at time 0 ([3]; 42 d): 49
amylase activity, referring to reference formulation at time 0 ([3]; T0): 97
protease activity, referring to reference formulation at time 0 [2, 11]: 94
protease activity, referring to reference formulation at time 0 [2, 12]: 90
protease activity, referring to reference formulation at time 0 [2, 13]: 81
protease activity, referring to reference formulation at time 0 [2, 14]: 73
protease activity, referring to reference formulation at time 0 [2, 15]: 67
protease activity, referring to reference formulation at time 0 [2, 16]: 56
protease activity, referring to reference formulation at time 0 [2, 17]: 100
protease activity, referring to reference formulation at time 0 [2, 18]: 94
protease activity, referring to reference formulation at time 0 [2, 19]: 90
protease activity, referring to reference formulation at time 0 [2, 20]: 84
protease activity, referring to reference formulation at time 0 [2, 21]: 78
protease activity, referring to reference formulation at time 0 [2, 22]: 70
protease activity, referring to reference formulation at time 0 [2, 23]: 62
protease activity, referring to reference formulation at time 0 [2, 24]: 100

— patent US20220112479A1, “COMPOUNDS STABILIZING AMYLASES IN LIQUIDS” (BASF SE, priority 2018, published 2022)
